From the supplement of paper PMC10307832

Key:
Test in all cases: relative viability (nuclei count vs DMSO), 5 days (fraction); higher = more cells survive
CX-5461 + Decitabine = compound: Cc1cnc(CNC(=O)c2c(=O)c3ccc(N4CCCN(C)CC4)nc3n3c2sc2ccccc23)cn1 [CX-5461] + Nc1ncn([C@H]2C[C@H](O)[C@@H](CO)O2)c(=O)n1 [Decitabine] (partner 2 µM)
Method in brief: (§1)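 Cells from lung cancer lines were seeded into 1536-well plates and, one day later, dosed by pin tool. Treatments were either a single drug or a fixed dose of an anchor drug with five library-drug doses (not always all listed) in √10 steps. After 5 days, nuclei were stained in a one-step fixation (final 0.05% Triton X-100, 1% formaldehyde, 1 ug/ml Hoechst) and counted on 4× images, and relative viability is the treated-to-vehicle nuclei ratio, as the median of duplicate plates.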

CX-5461 + Bortezomib = compound: Cc1cnc(CNC(=O)c2c(=O)c3ccc(N4CCCN(C)CC4)nc3n3c2sc2ccccc23)cn1 [CX-5461] + CC(C)C[C@H](NC(=O)[C@H](Cc1ccccc1)NC(=O)c1cnccn1)B(O)O [Bortezomib] (partner 0.002 µM)
Method in brief: as §1

IMD-0354 + Luminespib = compound: O=C(Nc1cc(C(F)(F)F)cc(C(F)(F)F)c1)c1cc(Cl)ccc1O [IMD-0354] + CCNC(=O)c1noc(-c2cc(C(C)C)c(O)cc2O)c1-c1ccc(CN2CCOCC2)cc1 [Luminespib] (partner 0.01 µM)
Method in brief: as §1

IMD-0354 + Dasatinib = compound: O=C(Nc1cc(C(F)(F)F)cc(C(F)(F)F)c1)c1cc(Cl)ccc1O [IMD-0354] + Cc1nc(Nc2ncc(C(=O)Nc3c(C)cccc3Cl)s2)cc(N2CCN(CCO)CC2)n1 [Dasatinib] (partner 0.075 µM)
Method in brief: as §1

Cell Line | relative viability (CX-5461 + Decitabine; first compound 0.01 µM) | relative viability (CX-5461 + Decitabine; first compound 0.03162 µM) | relative viability (CX-5461 + Decitabine; first compound 0.1 µM) | relative viability (CX-5461 + Decitabine; first compound 0.3162 µM) | relative viability (CX-5461 + Decitabine; first compound 1 µM) | relative viability (CX-5461 + Bortezomib; first compound 0.01 µM) | relative viability (CX-5461 + Bortezomib; first compound 0.03162 µM) | relative viability (CX-5461 + Bortezomib; first compound 0.1 µM) | relative viability (CX-5461 + Bortezomib; first compound 0.3162 µM) | relative viability (CX-5461 + Bortezomib; first compound 1 µM) | relative viability (IMD-0354 + Luminespib; first compound 0.04 µM) | relative viability (IMD-0354 + Luminespib; first compound 0.1265 µM) | relative viability (IMD-0354 + Luminespib; first compound 0.4 µM) | relative viability (IMD-0354 + Luminespib; first compound 1.265 µM) | relative viability (IMD-0354 + Luminespib; first compound 4 µM) | relative viability (IMD-0354 + Dasatinib; first compound 0.04 µM) | relative viability (IMD-0354 + Dasatinib; first compound 0.1265 µM) | relative viability (IMD-0354 + Dasatinib; first compound 0.4 µM) | relative viability (IMD-0354 + Dasatinib; first compound 1.265 µM) | relative viability (IMD-0354 + Dasatinib; first compound 4 µM)
201T | 0.861 | 0.849 | 0.885 | 0.814 | 0.834 | 1.16 | 1.15 | 1.08 | 1.14 | 1.05 | 1.19 | 1.04 | 0.678 | 0.638 | 0.278 | 0.625 | 0.586 | 0.479 | 0.283 | 0.346
A549 | 0.299 | 0.387 | 0.249 | 0.269 | 0.0566 |  |  |  |  |  |  |  |  |  |  |  |  |  |  | 
A-427 | 0.593 | 0.603 | 0.52 | 0.269 | 0.481 | 0.999 | 1.04 | 0.98 |  | 0.912 | 1.06 | 0.985 | 0.457 | 0.301 | 0.166 | 0.813 | 0.772 | 0.346 | 0.112 | 0.137
ABC-1 | 0.971 |  | 1.38 | 0.429 | 0.96 | 0.297 | 0.282 |  | 0.206 | 0.313 | 0.381 | 0.82 | 0.32 | 0.237 | 0.307 | 0.67 | 0.673 | 0.279 | 0.165 | 0.228
BEN | 0.757 | 0.706 | 0.711 | 0.652 | 0.545 | 1.07 | 0.665 | 1.02 | 0.672 | 0.597 | 0.159 | 0.533 | 0.256 | 0.161 | 0.139 | 0.319 | 0.315 | 0.246 | 0.227 | 0.165
CAL-12T |  |  |  |  |  | 0.941 | 0.92 | 0.909 | 1.17 | 0.831 | 0.432 | 0.434 | 0.338 | 0.126 | 0.172 | 0.356 | 0.387 | 0.255 | 0.0944 | 0.146
COR-L23 | 0.424 | 0.424 | 0.371 | 0.489 | 0.219 | 0.831 | 1.05 | 0.813 | 1.04 | 0.474 | 0.583 | 0.53 | 0.402 | 0.115 | 0.166 | 0.426 | 0.475 | 0.37 | 0.0763 | 0.201
COR-L 105 | 0.668 | 0.612 | 0.609 | 0.512 | 0.436 | 0.841 | 0.701 | 0.492 | 0.385 | 0.416 | 0.891 | 0.906 | 0.463 | 0.317 | 0.236 | 0.401 | 0.316 | 0.283 | 0.246 | 0.197
Calu-6 |  |  |  |  |  | 1.16 | 1.06 | 0.907 | 1.12 | 0.382 |  |  |  |  |  |  |  |  |  | 
ChaGo-K-1 | 0.554 | 0.485 | 0.547 | 0.543 | 0.431 | 1.14 | 0.968 | 0.647 | 0.414 | 0.449 | 0.639 | 0.566 | 0.364 | 0.223 | 0.228 | 0.635 | 0.59 | 0.434 | 0.2 | 0.237
EBC-1 |  |  |  |  |  | 0.591 | 0.619 | 0.466 | 0.49 | 0.423 |  |  |  |  |  |  |  |  |  | 
EKVX | 0.286 | 0.418 | 0.395 |  | 0.39 | 1.29 | 1.04 | 1.01 |  | 0.838 | 1.05 | 0.672 | 0.783 | 0.767 | 0.117 | 0.32 | 0.505 | 0.445 | 0.409 | 0.272
EMC-BAC-2 | 0.97 | 0.994 | 0.709 | 0.655 | 0.473 | 1.14 | 1.13 | 1.04 | 1.06 | 0.746 | 1.28 | 1.13 | 0.537 | 0.651 | 0.284 | 0.313 | 0.313 | 0.235 | 0.19 | 0.218
EPLC-272H | 0.358 | 0.425 | 0.396 |  | 0.297 | 0.93 | 0.975 | 0.765 |  | 0.814 | 0.51 | 0.322 | 0.409 | 0.22 | 0.131 | 0.511 | 0.279 | 0.353 | 0.121 | 0.0731
H3255 | 0.634 | 0.611 | 0.73 |  | 0.624 | 0.878 | 0.791 | 0.775 | 0.464 | 0.789 | 0.776 | 0.845 | 0.778 | 0.293 | 0.285 | 0.303 | 0.348 | 0.264 | 0.235 | 0.282
HARA | 0.595 | 0.429 | 0.559 | 0.587 | 0.526 | 1.01 | 1.28 | 1.13 | 1.06 | 0.809 | 0.863 | 0.689 | 0.37 | 0.16 | 0.125 | 0.324 | 0.253 | 0.185 | 0.103 | 0.0678
